{"source": "patent US20040152868A1", "about": "“Compositions and methods for modulating guanylyl cyclase signaling receptor (gc-c) activity and for treating meniere's disease” (priority 2001, published 2004)", "key": {"[1]": {"target": "T1, guanylyl cyclase (GC-C) receptor (Homo sapiens, UniProt P25092)", "T1 construct": "stimulation of cGMP in T84 cell cultures may be used as an efficacy assay; endogenous in cells; host or cells: T84 (human colon carcinoma cell line)", "T1 sequence (P25092 24-1073)": "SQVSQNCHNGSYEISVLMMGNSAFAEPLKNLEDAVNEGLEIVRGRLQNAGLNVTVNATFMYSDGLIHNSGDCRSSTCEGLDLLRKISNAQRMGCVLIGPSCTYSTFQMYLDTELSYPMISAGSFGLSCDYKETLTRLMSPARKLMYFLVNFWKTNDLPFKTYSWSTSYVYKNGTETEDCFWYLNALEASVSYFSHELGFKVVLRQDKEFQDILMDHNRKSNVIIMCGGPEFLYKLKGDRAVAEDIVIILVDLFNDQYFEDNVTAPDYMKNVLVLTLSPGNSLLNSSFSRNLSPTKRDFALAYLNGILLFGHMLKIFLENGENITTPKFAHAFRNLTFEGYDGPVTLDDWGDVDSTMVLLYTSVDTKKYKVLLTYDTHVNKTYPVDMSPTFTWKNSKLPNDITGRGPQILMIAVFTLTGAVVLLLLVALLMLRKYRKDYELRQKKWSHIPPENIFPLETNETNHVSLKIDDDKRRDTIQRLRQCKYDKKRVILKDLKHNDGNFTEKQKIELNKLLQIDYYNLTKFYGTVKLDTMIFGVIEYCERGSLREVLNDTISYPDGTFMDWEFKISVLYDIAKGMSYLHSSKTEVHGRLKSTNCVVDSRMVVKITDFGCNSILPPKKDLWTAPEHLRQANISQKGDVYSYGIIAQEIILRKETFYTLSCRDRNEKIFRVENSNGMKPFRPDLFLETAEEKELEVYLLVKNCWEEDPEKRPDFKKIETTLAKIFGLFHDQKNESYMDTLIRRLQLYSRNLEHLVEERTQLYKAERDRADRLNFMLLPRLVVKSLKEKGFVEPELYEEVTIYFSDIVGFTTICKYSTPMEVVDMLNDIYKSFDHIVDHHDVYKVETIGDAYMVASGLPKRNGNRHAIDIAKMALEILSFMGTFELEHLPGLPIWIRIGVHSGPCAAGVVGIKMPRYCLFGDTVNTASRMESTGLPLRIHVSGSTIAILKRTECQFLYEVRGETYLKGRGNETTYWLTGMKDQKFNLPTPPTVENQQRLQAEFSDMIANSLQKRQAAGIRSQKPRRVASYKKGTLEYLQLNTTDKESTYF", "experiment": "cGMP-efficacy on T84 cells (stimulation of cGMP formation)", "type": "cell-based", "details": "cGMP formation in T84 cells; for EC50: efficacy assay of Example 1", "method": "T84 cells are grown to near confluence in DMEM medium and Ham's F-12 medium (1:1) supplemented with 5% Foetal Calf Serum (FCS), […] in 175 cm^2 culture flasks (Nunc) at 37° C., 5% CO2 and 100% humidity. Cells are harvested in ice-cold PBS and centrifuged at 100×G for 10 min at 4° C. The sedimented cells are lysed in 2.5 ml dist. H2O/culture flask at 0° C. for 30 min and centrifuged at 50,000×G 4° C. for 45 min. The membrane pellet is taken up in binding buffer (50 mM HEPES, 1 mM EDTA, 10 mM MgCl2, pH 7.4) supplemented with 10% sucrose and stored at −80° C. until use.\nFor stimulation of cGMP formation, cells are seeded in 96-well microtiter plates (Nunc) at a density of 2500 cells/well (˜7576 cells/cm^2) and grown for 3 days before use under the same culture conditions mentioned above.\nOn the day of analysis growth medium is removed and the T84 cells are washed twice in Dulbeccos Phosphate Buffered Saline™ (D-PBS) containing 6 mM glucose at 37° C. Cells are then incubated at 37° C. for 40 min in the same medium supplemented with 2 mM IBMX (a phosphodiesterase inhibitor) and increasing concentrations of test compounds. The reaction is stopped by addition of ice-cold 20 μl 0.50 M HCl and incubation on ice for further 20 min. 20 μl of the acid extract is used for determination of cGMP by the FlashPlate™ technique and another 20 μl is used for determination of protein content.\nData from the cGMP experiments are treated in an analogueous way and fitted to:\nf=(cGMPmax−cGMPbasic)*s/(s+EC50)+cGMPbasic\nwhere cGMPmax is maximal obtainable cGMP and cGMPbasic is the basic level of cellular cGMP. EC50 is the concentration giving half maximum effect and s the concentration of test compound. […]"}, "[2]": {"target": "T1, guanylyl cyclase (GC-C) receptor", "details": "T84 cells, reported values; cited from earlier work"}, "[3]": {"experiment": "standard diuresis assay / renal clearance in conscious rats with arterial pressure and heart rate recording", "type": "in vivo, rat", "method": "Male Sprague-Dawley rats weighing 350-370 g (M&B, Denmark) were anaesthetized with a subcutaneous injection of 2 ml/kg of a 1:1 mixture of Hypnorm® (fentanyl citrate 0.315 mg/ml and fluanisone 10 mg/ml) and Dormicum® (midazolam 5 mg/ml) diluted 1:1 in distilled water. Permanent catheters were inserted into the femoral vein and artery. The i.v. line is used for i.v. infusion and the arterial line is used for continuous intra-arterial blood pressure recording and withdrawal of blood samples. A permanent supra-pubic catheter was inserted into the urinary bladder, which allowed fractionated urine collection and determination of urine flow rate. Animals were allowed about one week of recovery before they were used for experiments.\nOn the day of the experiment, the rat was placed in a lucid restrainer. […] To obtain a stable urine production under these conditions, the rat was slightly water loaded by i.v. infusion of a hypotonic glucose solution (150 mM glucose; 100 μl/min the first 15 min, then 25 μl/min throughout the experiment). The arterial line was connected to a pressure transducer (Baxter Truware: PX-260 Uden, Netherlands) and the pulsatile arterial blood pressure was amplified (×1.000-10.000) via a Hugo Sachs Electronic Tranducer Amplifier Module model 705/1. The analogue signal was digitalized via a 12 bit data acquisition board (Data Translation model DT321) and sampled at 1000 Hz using the Notocord HEM version 4 software for Windows NT. The systolic peak pressure triggered a software heart rate module that calculated heart rate beat-to-beat.\nAfter a 60 minutes equilibration period, fractionated collection of urine was started (t=0). After 4 control periods (4×15 minutes), a bolus injection of Mouse-Guanylin-Asp—OH, 10 μmol/kg i.v was administered and collection of urine was collected in 15 minute periods for 3 hours (period […]). Urine volume was measured gravimetrically. The urine samples were stored at −20° C. until further analysis. Urine was analysed for sodium and potassium using a using a flame spectrophotometer (Instrumentation Laboratory, model IL 943)."}, "[4]": {"experiment": "otoacoustic emission (DP-gram) in rats after 14 days i.p. infusion", "type": "in vivo, rat", "method": "In this example, rats were given 8 nmol/kg/h of Compound 1 intraperitoneally for 14 days via Alzet osmotic pumps. Otoacoustic emissions were measured before treatment and at the end of treatment. Urine samples were collected during infusion, and the natriuretic effect of Compound 1 was measured by flame spectroscopy.\n18 female Sprague-Dawley rats weighing 250 g each were divided into two groups. In total, 8 control animals received vehicle and 10 animals received COMPOUND 1. During the experiment the animals had free access to food and water.\nPrior to the study COMPOUND 1 was dissolved in 50 mM phosphate buffer pH 4.0 containing 1% BSA and loaded into Alzet osmotic pumps. The pumps were then surgically inserted into the peritoneum of the rats administering 8 nmol/kg/h for 14 days. After insertion of the pumps the animals were placed in metabolic cages for a week, and samples of urine were collected every 24 hrs from Day 0 through Day 6.\nThe rats were all tested before the start of the study and at the end of the study. […]\nThe only DPOAE measured were the amplitude of cubic distortion product 2f1-f2, and always with the level of f1 (L1) 10 dB higher than the level of f2 (L2=L1-10 dB). The output of the ER-10B microphone was feed to a B&K (Nexus) amplifier and analysed on an HP 35670A spectrum. […]"}, "[5]": {"details": "rat, in vivo; cited from earlier work"}}, "note": "Where two headings read alike, the source gives them in different places. Bridge positions count the residues as written; N and C are the ends. Square brackets hold non-standard residues; d marks the D form. Ends that are not written are not given here. Peptide text beside a SMILES is read from it. 2Nal = N[C@@H](Cc1ccc2ccccc2c1)C(=O)O"}
{"compound": "SPNFIWK [Compound 3, H-Ser-Pro-Asn-Phe-Ile-Trp-Lys—NH2]", "values": [{"measurement": "EC50", "setting": "[1]", "value": "No effect"}]}
{"compound": "CC[C@H](C)[C@@H]1NC(=O)[C@H](CCC(=O)O)NC(=O)[C@@H](NC(=O)[C@@H](N)[C@@H](C)O)CSSC[C@@H]2NC(=O)[C@H](C)NC(=O)[C@H](C)NC(=O)[C@H](Cc3ccc(O)cc3)NC(=O)[C@H](C)NC(=O)[C@H](CSSC[C@@H](C(=O)N[C@@H](CC(C)C)C(=O)N[C@@H](CCCCN)C(=O)N[C@@H](CCCCN)C(N)=O)NC(=O)CNC(=O)[C@H]([C@@H](C)O)NC2=O)NC1=O", "note": "[Compound 8, des-Pro^1, des-Asn^2Guanylin-LKK-NH2 fully oxidised(1-3, 2-4) (rat/mouse): H-TCEICAYAACTGCLKK-NH2 oxidised(1-3, 2-4)] (H-TCEICAYAACTGCLKK-NH2; disulfide 2-10, 5-13)", "values": [{"measurement": "EC50", "setting": "[1]; read-out: EC50", "value": 29, "unit": "µM"}]}
{"compound": "CC[C@H](C)[C@@H]1NC(=O)[C@H](CCC(=O)O)NC(=O)[C@@H](NC(=O)[C@@H](N)[C@@H](C)O)CSSC[C@@H]2NC(=O)[C@H](C)NC(=O)[C@H](C)NC(=O)[C@H](Cc3ccccc3)NC(=O)[C@H](C)NC(=O)[C@H](CSSC[C@@H](C(=O)N[C@@H](CC(C)C)C(N)=O)NC(=O)CNC(=O)[C@H]([C@@H](C)O)NC2=O)NC1=O", "note": "[Compound 5, des-Pro^1, des-Asn^2[Phe^9]Guanylin-L-NH2 (rat/mouse)] (H-TCEICAFAACTGCL-NH2; disulfide 2-10, 5-13 (inferred))", "values": [{"measurement": "EC50", "setting": "[1]; read-out: EC50", "value": 28, "unit": "µM"}]}
{"compound": "CC[C@H](C)[C@@H]1NC(=O)[C@H](CCC(=O)O)NC(=O)[C@@H](NC(=O)[C@@H](N)[C@@H](C)O)CSSC[C@@H]2NC(=O)[C@H](C)NC(=O)[C@H](C)NC(=O)[C@H](Cc3ccc4ccccc4c3)NC(=O)[C@H](C)NC(=O)[C@H](CSSC[C@@H](C(=O)N[C@@H](CC(C)C)C(N)=O)NC(=O)CNC(=O)[C@H]([C@@H](C)O)NC2=O)NC1=O", "note": "[Compound 6, des-Pro^1, des-Asn^2[2-Nal^9]Guanylin-L-NH2 (rat/mouse)] (H-TCEICA[2Nal]AACTGCL-NH2; disulfide 2-10, 5-13)", "values": [{"measurement": "EC50", "setting": "[1]; read-out: EC50", "value": "> 100", "unit": "µM"}]}
{"compound": "uroguanylin (NDDCELCVNVACTGCL; ends and bridges not checked; cysteine pairing not given here; UniProt Q16661 97-112, looked up) [synthetic uroguanylin, member of the guanylin peptide family]", "values": [{"measurement": "increase in cGMP production reported", "setting": "[2]", "value": 300, "unit": "fold"}]}
{"compound": "Guanylin-Asp-Lys6-NH2 (rat/mouse) [Compound 12]", "values": [{"measurement": "agonist character at GC-C", "setting": "[1]", "value": "potent agonist"}]}
{"compound": "des-Pro^1, des-Asn^2Guanylin-LKK-NH2 mono oxidised(1-3) (rat/mouse) [Compound 7]", "values": [{"measurement": "EC50", "setting": "[1]", "value": "No effect"}]}
{"compound": "Mouse-Guanylin-Asp-OH [Compound 13]", "values": [{"measurement": "effect on heart rate", "setting": "[3]; conscious rats, 10 μmol/kg i.v.", "value": "no effect"}, {"measurement": "increase in mean arterial blood pressure", "setting": "[3]; conscious rats, 10 μmol/kg i.v. bolus, immediate and sustained", "value": "15-20 mmHg"}, {"measurement": "effect on urinary potassium excretion rate", "setting": "[3]; rats, 10 μmol/kg i.v.", "value": "rapid and transient increase"}, {"measurement": "effect on urinary sodium excretion rate", "setting": "[3]; rats, 10 μmol/kg i.v.", "value": "immediate and sustained increase"}, {"measurement": "effect on urine flow rate", "setting": "[3]; rats, 10 μmol/kg i.v.", "value": "rapid and transient increase"}]}
{"compound": "CC[C@H](C)[C@@H]1NC(=O)[C@H](CCC(=O)O)NC(=O)[C@@H](NC(=O)[C@@H](NC(=O)[C@H](CC(N)=O)NC(=O)[C@@H]2CCCN2)[C@@H](C)O)CSSC[C@@H]2NC(=O)[C@H](C)NC(=O)[C@H](C)NC(=O)[C@H](Cc3ccc(O)cc3)NC(=O)[C@H](C)NC(=O)[C@H](CSSC[C@@H](C(N)=O)NC(=O)CNC(=O)[C@H]([C@@H](C)O)NC2=O)NC1=O", "note": "[Compound 1, Mouse-Guanylin-NH2, H-PNTC*EICAYAAC*TGC-NH2 (double oxidised C to C and C* to C*)] (H-PNTCEICAYAACTGC-NH2; disulfide 4-12, 7-15)", "values": [{"measurement": "otoacoustic emission at 14 to 16 kHz", "setting": "[4]; 8 nmol/kg/h intraperitoneally for 14 days via Alzet osmotic pumps", "value": "significant decrease"}, {"measurement": "change in otoacoustic emission from before to after treatment (2-way ANOVA)", "setting": "[4]; 14 days, most pronounced at the 14 kHz level", "value": "significant decrease"}, {"measurement": "EC50", "setting": "[1]; read-out: EC50", "value": 6.1, "unit": "µM"}]}
{"compound": "Cyclo(Gly-Glu-Ile-Gly-Ala-Tyr-Ala-Ala-Gly-Thr-Gly-Gln-) (GEIGAYAAGTGQ; cyclic; printed: Gly-Glu-Ile-Gly-Ala-Tyr-Ala-Ala-Gly-Thr-Gly-Gln-) [Compound 4]", "values": [{"measurement": "EC50", "setting": "[1]", "value": "No effect"}]}
{"compound": "guanylin (PGTCEICAYAACTGC; ends and bridges not checked; cysteine pairing not given here; UniProt Q02747 101-115, looked up)", "values": [{"measurement": "diuretic, natriuretic and kaliuretic effect", "setting": "[5]", "value": "substantial diuretic, natriuretic and kaliuretic effect"}, {"measurement": "increase in cGMP production reported", "setting": "[2]", "value": 300, "unit": "fold"}]}
